Measured values from patent US20080076137A1, “Bioanalytic Systems and Methods” (priority 2006, published 2008).

Test system: mouse monoclonal antibodies (mAb) B8 against Btri
Test: ELISA: binding of anti-Btri mAb to Streptavidin-coated plates modified with biotinylated Btri glycoconjugates
Conditions: for fluorescence intensity I (binding capacity / maximal activity): corrected fluorescence 355nm/460nm, at loading of maximal binding
Procedure: Biot1-PNPA was used to prepare a polyacrylamide conjugate with blood group trisaccharide B (Btri), Galα1-3(Fucα1-2)Gal-(FIG. 1b, Glyc=Btri). The obtained end-labeled glycopolymer; biott-PHEAA-(Btri)x (molar fraction of Btri is 20%), was tested on ability to bind monoclonal antibodies (mAbs) against Btri in ELISA. Its antibody binding activity was compared to that of other biotinylated derivatives of Btri, two monomeric glycosides with Btri-biot linkers of different length and a glycopolymer, PHEAA-(Btri)x-bioty. The latter was synthesized by the routine approach (see FIG. 1a) and contained biotin residues randomly pendant to the polymer backbone as side groups.
Dependence of signal in ELISA from loading of Streptaviditn-coated plates with biotynylated glycoconjugates is shown in FIG. 8. As shown, binding of antibodies with Streptavidin-coated plates modified with biotinilated glycoconjugates. The Streptavidin-coated plates were consequentially incubated with the glycoconjugates and mouse mAb; for development of the bound mAbs an anti-mouse alkaline phosphatase conjugate in combination with a fluorescent substrate were used. The detected fluorescence intensity is plotted against added per well amounts of a) Btri and b) biotin related to the quantity of Streptavidin in well. According the manufacturer 125 pmole Streptavidin is contained per well, the working well surface was calculated to be 9·10^15 Å^2. […] The antibody binding to surface modified with the biotinylated monovalent Btri-glycosides was noticeably lower then in the cases with the multivalent ligands. For the glycoside with a long linker, Btri-O(CH2)3NHCO(CH2)5NH-biot, assay signal was detected only when coating concentration of the glycoside exceeded 20 ng/well (0.18 mole biotin/mole Streptavidin, and 22 pmole of Btri/well).
All chemicals and solvents apart from those mentioned below were purchased from Merck (Germany) and Fluka (Switzerland). The solvents were dried and purified by conventional procedures. Galα1-3(Fucα1-2)Galβ-O(CH2)3NH2, 4-Nitrophenylacrylate, PNPA and PHEAA-(Btri)x-biotiny were synthesized as described elsewhere. Mouse monoclonal antibodies (mAb) B8 against Btri were obtained from All-Russian Hematology Research Center, Moscow. Anti-mouse IgG+IgM (H+L)-alkaline phosphatase conjugate (Ig-AP) was the product of AP Biotech (UK). The organocobalt complexes used in this work were protected from light; their solutions were concentrated under vacuum with bath temperature kept below 35° C.
Enzyme-Linked Immunosorbent Assay.
Before test plates “Reacti-Bind Streptavidin Coated High Binding Capacity Black 96-Well Plate” (Pierce) were rinsed twice with PBS. Then serial tenfold dilutions of the biotinylated glycoconjugates contained Btri in PBS (0.02-200 μg ml^−1, […] per well) were added onto the plates for 1 h at 37° C. Plates were washed with PBS containing 0.1% Tween-20 (washing buffer). The same way plates were washed between all the next steps. After washing the plates were blocked with 3-% BSA in PBS. B8 mAbs (1:100 in PBS containing 0.3% BSA) were added and plates were incubated for 1 h at 37° C. After that plates were washed and incubated with Ig-AP (1:5000 in PBS containing 0.3% BSA) for 1 h at 37° C. […] After 30-min incubation at room temperature fluorescence intensity (355nm/460nm) was measured by “Victor^2” multilabel counter (PerkinElmer). The collected data were expressed in fluorescence units. Each assay was done in duplicate, blank reaction was performed by omitting mAb. The blank reading was subtracted from the final fluorescence to provide the corrected fluorescence intensity values.

Row | Substance | interaction with mAb (in words) (ELISA on Streptavidin-coated plates) | fluorescence intensity I (binding capacity / maximal activity) | coating concentration above which assay signal was detected (0.18 mole biotin/mole Streptavidin, 22 pmole of Btri/well) | loading at which maximal binding of mAb / maximal activity was achieved (Streptavidin-coated plate, 125 pmole Streptavidin per well, 200 ng/well = 186 pmol of Btri, 220 ng/well = 220 pmole of Btri/well) | surface density of Btri at which binding with mAb reached maximal level (working well surface calculated to be 9·10^15 Å^2)
1 | Btri-O(CH2)3NH-biot | exceptionally weak | ~5×10^4 f.u. | – | – | –
2 | Btri-O(CH2)3NHCO(CH2)5NH-biot | – | ~70×10^4 f.u. | exceeded 20 ng/well | 220 ng/well | about 15 residues/1000 Å^2
